Assay: gradient 5% acetonitrile 3 min, to 50% in 2 min, to 85% in 15 min, held 3 min, 100 µL/min
Settings: column: Zorbax Extend-C18 2.1 x 50 mm; eluents: water / acetonitrile, 0.1% formic acid
Method in brief: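 Each retention time is based on an adduct peak selected computationally and verified by manual inspection. Measurements used HPLC–quadrupole time-of-flight mass spectrometry in positive and negative ionization mode on mixtures of ~100 pure standards. Chromatography ran on a Zorbax Extend-C18 column (2.1 × 50 mm, 1.8 μm) at 100 μL/min with water and acetonitrile, each containing 0.1% formic acid, and dead and dwell volumes of 40 μL and 900 μL.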

Row | SMILES | RP-LC retention time [s]
1 | Cc1sc(-c2cc(C(F)(F)F)on2)cc1S(=O)(=O)NCc1ccccc1Cl | 1140
2 | COCCN1C(=O)[C@H]2CN(Cc3ccccc3OC(F)(F)F)C[C@H]2C1=O | 743
3 | Cc1cc2c(c(=O)n1Cc1ccccc1)C(C(C)C)C(C#N)=C(N)O2 (centres undefined) | 769
4 | CCOC(=O)Nc1ccc2c(c1)N(CCC(C)C)C(=O)C(C)(C)CO2 | 1070
5 | CCOC(=O)c1sc(NC(=O)C2CC(=O)N(c3n[nH]c4ccccc34)C2)nc1C (centres undefined) | 750
6 | O=C(NCc1noc(-c2cccc(Cl)c2)n1)c1coc(-c2ccccc2)n1 | 1050
7 | CCOc1ccc(-c2cn3ccn(-c4cccc(F)c4)c(=O)c3n2)cc1 | 846
8 | Cc1ccc(N2C(=O)C3N=NN(Cc4nc(-c5cccc(C)c5)no4)C3C2=O)cc1 (centres undefined) | 1040
9 | CC(C(=O)Nc1ccc(F)c(F)c1)C1CCN(C(=O)Nc2ccc(Cl)cc2)CC1 (centres undefined) | 984
10 | COc1cc(C(=O)Nc2nc(-c3ccc4c(c3)NC(=O)CO4)c(C)s2)cc(OC)c1OC | 860
11 | COc1cccc(Nc2c(-c3ccc(N(C)C)cc3)nc3cnccn23)c1 | 771
12 | O=c1[nH]c2ccc(NCc3ccc(-c4ccccc4)cc3)cc2[nH]1 | 674
13 | Cc1ccc(C)c(-c2coc(-c3ccc(NC(=O)NCc4ccccc4)cc3)n2)c1 | 1220
14 | CNCCC(Oc1ccccc1OC)c1ccccc1 (centres undefined) | 734
15 | Cc1nc(NC(=O)c2ccc(F)cc2)nc2cc3c(cc12)OCO3 | 705
16 | CCOC(=O)c1cnn(-c2cccc(Cl)c2)c1C1CCNCC1 | 650
17 | Cc1noc(CC2CCOC3(CCN(C(=O)C4(c5ccccc5)CC4)CC3)C2)n1 (centres undefined) | 820
18 | Cc1cc(C(=O)Nc2nnc(-c3cccs3)o2)no1 | 632
19 | COc1cc([C@@H]2c3cc4c(cc3[C@H](O)[C@@H](CO)[C@@H]2C(=O)NCc2cc(F)cc(F)c2)OCO4)cc(OC)c1OC | 737
20 | CC(C)N1CCCn2cc(S(=O)(=O)Nc3cccc(C(F)(F)F)c3)cc2C1=O | 865

Row | SMILES | RP-LC retention time [s]
21 | Cc1cc(C)cc(-n2ccn(Cc3nc(-c4ccc(F)cc4)no3)c(=O)c2=O)c1 | 884
22 | CCc1cc(=O)n(Cc2ncc(C)c(OC)c2C)c(N2CCCC2)n1 | 554
23 | COc1ccc(SCCCC(=O)NCc2ccccc2)cc1 | 849
24 | CCc1ccc(N2CC(c3noc(-c4ccccc4F)n3)CC2=O)cc1 (centres undefined) | 1100
25 | COc1ccc(N2C=C(C#N)S(=O)(=O)c3ccc(F)cc32)cc1Cl | 948
26 | CCN(CC)S(=O)(=O)c1cccc(-c2nc(-c3ccc(C)cc3)no2)c1 | 1320
27 | O=C1COc2ccc(C(=O)N3CCCCC3)cc2N1 | 633
28 | COc1cc2c(cc1OC)C(C(=O)NCCCN1CCOCC1)C(c1cccs1)N(C)C2=O (centres undefined) | 596
29 | N#Cc1cccc(CN2C[C@@H]3C(=O)N(CCc4ccccc4)C(=O)[C@@H]3C2)c1 | 849
30 | O=S(=O)(c1cccn2cnnc12)N(Cc1cccc(F)c1)c1ccc(F)c(F)c1 | 866
31 | COc1ccc(Nc2c(-c3ccc(OC)cc3)nc3ncccn23)cc1 | 659
32 | O=C(NCc1ccc(C(F)(F)F)cc1)c1ccc(-c2cncnc2)nc1 | 782
33 | COc1ccc(CN(Cc2cc(=O)n3cccc(C)c3n2)CC(C)C)cc1OC | 635
34 | O=C(Nc1cccc(Cl)c1F)c1cnc(-c2ccc(F)cc2)nc1-c1ccncc1 | 972
35 | O=C(NCc1csc(C2CCCN(C(=O)C3CCCCC3)C2)n1)C1CC1 (centres undefined) | 748
36 | Cc1cc(=O)c2c(C)ccc(C)c2[nH]1 | 677
37 | Cc1nccnc1Sc1ccccc1 | 956
38 | Cc1ccc2c(c1)C(c1ccccc1)NCC(=O)N2 (centres undefined) | 544
39 | CCCn1cc(CCNS(=O)(=O)c2cccc(F)c2)c2cccnc21 | 837
40 | Fc1ccc(-c2noc(-c3nnn4c3COC(c3ccc(Cl)cc3)C4)n2)cc1 (centres undefined) | 1250

The next lines start with the values.

Row | RP-LC retention time [s] | SMILES
41 | 748 | CCOC(=O)c1ccc(NC(=O)CSc2cc(N3CCC(C(=O)NC4CC4)CC3)ncn2)cc1
42 | 573 | Cn1cc(C(=O)N2CCC(N(Cc3ccccc3)C3CCOCC3)CC2)cn1
43 | 893 | Cc1ccc(C)c(CSc2nnc3c(S(=O)(=O)N4CCCC4)cccn23)c1
44 | 562 | CCNc1cc(N2CCC(CCC(=O)N3CCN(C(C)=O)CC3)CC2)ncn1
45 | 1010 | Cn1cc(-c2nc(C(=O)N3CCc4ccccc43)cs2)c2cccnc21
46 | 775 | Cc1cccc(NC(=O)Cn2c(=O)n3nc(CCn4nc(C)cc4C)nc3c3ccccc32)c1
47 | 955 | CCOc1ccccc1NC(=O)N1CCC2(CC1)NC(=O)c1ccc(Cl)cc1N2CC
48 | 692 | CCC(C(=O)NCCCN1CCCC1=O)n1c2ccccc2c2cnn(C)c(=O)c21 (centres undefined)
49 | 998 | COc1ccccc1NC(=O)Cn1c(C)cc(-c2nnc(-c3ccc(F)cc3)o2)c1C
50 | 813 | O=C(c1ccc(OCC2CCCN2C(=O)c2ccccc2F)cc1)N1CCCC1 (centres undefined)
51 | 637 | Cn1cnnc1C1CCCCN1C(=O)c1cc(-c2cccs2)[nH]n1 (centres undefined)
52 | 666 | O=C(Cn1nc2nc(N3CCOCC3)ccn2c1=O)Nc1ccc(F)c(F)c1
53 | 650 | Cc1ccn2cc(C(=O)N3CCN(c4ccc(F)cc4)CC3)nc2c1
54 | 1110 | O=C(NCc1ccccc1C(F)(F)F)C1CCCN(c2nccnc2Sc2ccccc2)C1 (centres undefined)
55 | 794 | CCc1nnc(-c2ccc3ccn(CC(=O)Nc4ccc5c(c4)OCO5)c3c2)o1
56 | 654 | Cc1c(Cl)cccc1S(=O)(=O)NCC1CCN(C(=O)c2cccn(C)c2=O)CC1
57 | 789 | N#Cc1nc(-c2cccs2)oc1N1CCN(C(=O)c2ccco2)CC1
58 | 1000 | O=C(Cn1c(=O)cc(-c2nc(C3CC3)no2)c2ccccc21)NCCc1ccc(Cl)cc1
59 | 1080 | COc1ccccc1NC(=O)N1CCCC1c1nc(-c2cccc(C)c2)no1 (centres undefined)
60 | 814 | CCC1CN2C=NC(N3CCN(C(=O)Nc4ccccc4Cl)CC3)=CC2=N1 (centres undefined)
61 | 788 | CN1c2ccc(Cl)cc2C(=O)NC12CCN(C(=O)Nc1ccc(F)cc1)CC2
62 | 998 | Cc1ccc(CNC(=O)C2(C)CCN(S(=O)(=O)c3ccccc3Cl)CC2)cc1
63 | 1080 | CCc1ccc(-c2ccc(=O)n(Cc3nc(-c4ccc5c(c4)OCO5)no3)n2)cc1
64 | 568 | O=C(NCc1cccnc1)C1(c2ccc(F)cc2)CC1
65 | 946 | COc1ccc(CNC(=O)C2(C)CCCN(S(=O)(=O)c3ccc(C)cc3)C2)cc1 (centres undefined)

Row | RP-LC retention time [s] | SMILES
66 | 552 | O=C(Cn1ncccc1=O)N1CCN(c2ccc(-c3ccco3)nn2)CC1
67 | 1170 | Cn1cccc1C(=O)N1CC(Oc2ccc(-c3nc(-c4ccccc4)no3)cc2)C1
68 | 1060 | COc1ccc(-c2csc(C)n2)cc1S(=O)(=O)N1CCN(c2ccccc2)CC1
69 | 843 | CC1=C(c2ccc(Cl)cc2)S(=O)(=O)N=C1N1CCCN(C(=O)c2ccsc2)CC1
70 | 778 | COc1ccc(NC(=O)CN2C(=O)NC3(CCCCC3)C2=O)cc1Cl
71 | 566 | O=C(NCCc1cnc[nH]1)c1cc(-c2cccnc2)nc2ccccc12
72 | 804 | O=C(NCc1ccc(F)cc1)C1CCN(C(=O)C2Sc3ccccc3NC2=O)CC1 (centres undefined)
73 | 860 | O=C(NCC1CCCO1)C1CCCN(c2nccnc2Sc2ccccc2)C1 (centres undefined)
74 | 1180 | COc1ccc(-c2ncc3c(n2)CCN(S(=O)(=O)c2ccc(C)c(Cl)c2)C3)cc1
75 | 1050 | O=c1c2cc(-c3cccs3)nn2cnn1Cc1nc(-c2ccccc2Br)no1
76 | 622 | Cn1c(=O)c(C(=O)N2CCN(c3ccccn3)CC2)nn(-c2ccc(F)cc2)c1=O
77 | 721 | CSc1ccc(CCNC(=O)c2nc(N3CCOCC3)c3ccccc3n2)cc1
78 | 589 | COc1ccc(-c2nc(N3CCN(C4CCCCC4)CC3)c3ccccc3n2)cc1
79 | 512 | Cc1cc(C)n(CCN2CCN(C(=O)Cn3cnc4ccccc43)CC2)n1
80 | 592 | Cc1[nH]c(=O)[nH]c(=O)c1CCC(=O)N1CCC(c2nc3ccccc3s2)CC1
81 | 694 | CC(C)c1ccc2c(c1)-c1ccccc1S(=O)(=O)N2CC(=O)NCCCN1CCOCC1
82 | 696 | O=C(Cn1ccc2sccc2c1=O)NCc1ccccc1
83 | 731 | Cc1cc(C)cc(NC(=O)N2CCCC(Cn3c(C4CC4)nc4cccnc43)C2)c1 (centres undefined)
84 | 796 | CCC(CC)C(=O)N(C)CCc1noc(-c2ccc(C(=O)N3CCCC3)cc2)n1
85 | 697 | CCN1CCN(c2nc(F)c(F)c(S(=O)(=O)CCNc3cccc4ccccc34)c2F)CC1
86 | 864 | C=Cc1ccc(Cn2nc3ccc(S(=O)(=O)N4CCOCC4)cn3c2=O)cc1
87 | 596 | O=C(c1cccnc1)N1CCCCC1c1nncn1-c1ccccc1 (centres undefined)
88 | 652 | CCOC(=O)C1CCN(C(=O)Cn2nc3c(N4CCCCCC4)nccn3c2=O)CC1
89 | 952 | CCc1nc(-c2csc(S(=O)(=O)N3CCC(C(=O)Nc4ccccc4)CC3)c2)no1

From the METLIN SMRT retention time set (Domingo-Almenara et al. 2019)
